Reference: ChEMBL document CHEMBL5620422, “Design, synthesis, and biological evaluation of a series of new anthraquinone derivatives as anti-ZIKV agents” (Eur J Med Chem, 2023)
Active and inactive are the calls of the source. The rule behind the calls is not given here.

Tests used:
[1] = Cytotoxicity against african green monkey Vero cells assessed as reduction in cell viability incubated for 48 hrs by MTT assay; format: toxicity, cell-based; conditions: chlorocebus sabaeus
Zika virus [2] = assay: Antiviral activity against ZIKV ZG-01 infected in SNB-19 cells assessed as reduction in viral replication at 20 uM preincubated for 1 hr followed by replacement with fresh media containing compound for 48 hrs by RT-PCR analysis; format: functional; design: scale not given: the % may be the effect or the level left; conditions: time 49 hrs
Zika virus [3] = assay: Antiviral activity against ZIKV ZG-01 infected in human JEG-3 cells assessed as reduction in GSDMD cleavage by Western blot analysis; format: functional, organism-based; conditions: dose 1-20 µM
Zika virus [4] = assay: Antiviral activity against ZIKV ZG-01 infected in human JEG-3 cells assessed as reduction in LDH release incubated for 36 hrs; format: functional, organism-based; conditions: dose 1-5 µM
[5] = Toxicity in Ifnar1 knockout C57BL/6 mouse assessed as movement disorders at 60 mg/kg administered for 7 days; format: organism-based; conditions: in vivo, 168 h, time 7 day
Zika virus [6] = assay: Antiviral activity against ZIKV ZG-01 infected in human SNB-19 cells assessed as reduction in IFNgamma expression at 1 to 5 uM by RT-PCR analysis; format: functional, organism-based; conditions: dose 1-5 µM
[7] = Cytotoxicity against human SNB-19 cells assessed as reduction in cell viability incubated for 48 hrs by MTT assay; format: toxicity, cell-based
Zika virus [8] = assay: Antiviral activity against ZIKV ZG-01 infected in human JEG-3 cells assessed as reduction in IL-1beta release at 1 to 5 uM by ELISA; format: functional, organism-based; conditions: dose 1-5 µM
SNB-19 [9] = assay: Antiinflammatory activity in human SNB-19 cells assessed as reduction in TNFalpha expression by RT-PCR analysis; format: functional, cell-based
Zika virus [10] = assay: Antiviral activity against ZIKV ZG-01 infected in Ifnar1 knockout C57BL/6 mouse assessed as reduction in astrocytes activation by measuring GFAP expression at 20 mg/kg, iv administered daily for 7 days by immunohistochemistry analysis; format: functional, organism-based; conditions: time 7.0 day
Zika virus [11] = assay: Antiviral activity against ZIKV ZG-01 infected in JEG-3 cells assessed as reduction in viral envelope protein expression at 5 uM by immunofluorescence assay; format: functional, organism-based
Zika virus [12] = assay: Antiviral activity against ZIKV ZG-01 infected in human JEG-3 cells assessed as reduction in TNFalpha expression at 1 to 5 uM by RT-PCR analysis; format: functional, organism-based; conditions: dose 1-5 µM
Zika virus [13] = assay: Antiviral activity against ZIKV ZG-01 infected in SNB-19 cells assessed as reduction in viral envelope protein level at 1 to 20 uM after 48 hrs by Western blot assay; format: functional, organism-based; conditions: dose 1-20 µM
JEG-3 [14] = assay: Antiinflammatory activity in human JEG-3 cells assessed as reduction in IL-6 expression by RT-PCR analysis; format: functional, cell-based
Zika virus [15] = assay: Antiviral activity against ZIKV ZG-01 infected in human JEG-3 cells assessed as reduction in IL-6 expression at 1 to 5 uM by RT-PCR analysis; format: functional, organism-based; conditions: dose 1-5 µM
Zika virus [16] = assay: Antiviral activity against ZIKV ZG-01 infected in Vero cells preincubated for 1 hr followed by replacement with fresh media containing compound for 48 hrs by crystal violet staining based plaque assay; format: functional
Zika virus [17] = assay: Antiviral activity against ZIKV ZG-01 infected in human SNB-19 cells assessed as reduction in LDH release incubated for 36 hrs; format: functional, organism-based; conditions: dose 1-5 µM
[18] = Cytotoxicity against human JEG-3 cells assessed as reduction in cell viability incubated for 48 hrs by MTT assay; format: toxicity, cell-based
JEG-3 [19] = assay: Antiinflammatory activity in human JEG-3 cells assessed as reduction in IL-1beta expression by RT-PCR analysis; format: functional, cell-based
SNB-19 [20] = assay: Antiinflammatory activity in human SNB-19 cells assessed as reduction in IL-6 expression by RT-PCR analysis; format: functional, cell-based
[21] = Toxicity in Ifnar1 knockout C57BL/6 mouse assessed as body weight loss at 60 mg/kg administered for 7 days; format: organism-based; conditions: in vivo, 168 h, time 7 day
Zika virus [22] = assay: Antiviral activity against ZIKV ZG-01 infected in SNB-19 cells preincubated for 1 hr followed by replacement with fresh media containing compound for 48 hrs by crystal violet staining based plaque assay; format: functional
Zika virus [23] = assay: Antiviral activity against ZIKV ZG-01 infected in human SNB-19 cells assessed as reduction in GSDMD cleavage by Western blot analysis; format: functional, organism-based; conditions: dose 1-20 µM
Zika virus [24] = assay: Antiviral activity against ZIKV ZG-01 infected in human SNB-19 cells assessed as reduction in IL-6 expression at 1 to 5 uM by RT-PCR analysis; format: functional, organism-based; conditions: dose 1-5 µM
SNB-19 [25] = assay: Antiinflammatory activity in human SNB-19 cells assessed as reduction in IFNgamma expression by RT-PCR analysis; format: functional, cell-based
Zika virus [26] = assay: Antiviral activity against ZIKV ZG-01 infected in Ifnar1 knockout C57BL/6 mouse assessed as reduction in neuronal necrosis by measuring necrotic debris at 20 mg/kg, iv administered daily for 7 days and measured upto 12 dpi by H and E staining based analysis; format: functional, organism-based; conditions: time <= 12.0 day
Zika virus [27] = assay: Antiviral activity against ZIKV ZG-01 infected in Vero cells assessed as reduction in viral replication at 20 uM preincubated for 1 hr followed by replacement with fresh media containing compound for 48 hrs by RT-PCR analysis; format: functional; design: scale not given: the % may be the effect or the level left; conditions: time 49 hrs
Zika virus [28] = assay: Antiviral activity against ZIKV ZG-01 infected in JEG-3 cells assessed as reduction in viral replication at 20 uM preincubated for 1 hr followed by replacement with fresh media containing compound for 48 hrs by RT-PCR analysis; format: functional; design: scale not given: the % may be the effect or the level left; conditions: time 49 hrs
NS5 = NS5 (Zika virus, UniProt A0A143MHK7); assay: Binding affinity to ZIKV RdRP by SPR assay
Sequence of NS5 (A0A143MHK7 whole entry): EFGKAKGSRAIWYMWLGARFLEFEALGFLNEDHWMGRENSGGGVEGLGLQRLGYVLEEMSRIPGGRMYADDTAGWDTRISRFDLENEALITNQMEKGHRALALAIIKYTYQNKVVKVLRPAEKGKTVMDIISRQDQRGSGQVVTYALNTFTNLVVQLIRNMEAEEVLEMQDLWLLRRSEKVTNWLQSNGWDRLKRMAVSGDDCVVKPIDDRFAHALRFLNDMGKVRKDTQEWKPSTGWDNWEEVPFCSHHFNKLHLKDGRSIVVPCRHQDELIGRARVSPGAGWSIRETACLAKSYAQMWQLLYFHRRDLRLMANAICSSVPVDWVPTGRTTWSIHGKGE

## C[C@]1(O)CC2=C(C[C@@]1(C)O)C(=O)c1c(O)cc(N3CCC(c4ccccc4)CC3)c(O)c1C2=O
[1]
  CC50 at 48 h: 65.4 µM
Zika virus [2]
  Activity: 100%
Zika virus [3]
  Activity: Dose-Dependent Effect
Zika virus [4]
  Activity: Dose-Dependent Effect
[5]
  Activity: Non-Toxic
Zika virus [6]
  Activity: Active
[7]
  CC50 at 48 h: 66.1 µM
Zika virus [8]
  Activity: Active
SNB-19 [9]
  Activity: inactive
Zika virus [10]
  Activity: Active
Zika virus [11]
  Activity: Active
Zika virus [12]
  Activity: Active
Zika virus [13]
  Activity: Active
JEG-3 [14]
  Activity: inactive
Zika virus [15]
  Activity: Active
Zika virus [16]; ZG-01, Vero, time 49 hrs
  EC90: 6.4 µM
Zika virus [16]; time 49.0 hrs
  Activity: Dose-Dependent Effect
Zika virus [17]
  Activity: Dose-Dependent Effect
[18]
  CC50 at 48 h: 54.7 µM
JEG-3 [19]
  Activity: inactive
SNB-19 [20]
  Activity: inactive
[21]
  Activity: Non-Toxic
Zika virus [22]; ZG-01, SNB-19, time 49 hrs
  EC90: 6.4 µM
Zika virus [22]; time 49.0 hrs
  Activity: Dose-Dependent Effect
Zika virus [23]
  Activity: Dose-Dependent Effect
Zika virus [24]
  Activity: Active
SNB-19 [25]
  Activity: inactive
Zika virus [26]
  Activity: Active
Zika virus [27]
  Activity: 100%
Zika virus [28]
  Activity: 100%
NS5
  Kd: 10.4 µM
